How the values were obtained:
Experiment in all cases: relative viability (nuclei count vs DMSO), 5 days (fraction); higher = more cells survive
NCI-H441 = tested on: NCI-H441
How it was run: (§1)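 Five library-drug doses in √10 steps were combined with a fixed anchor-drug dose, or a single drug was given alone, by pin tool to lung cancer cell lines in 1536-well plates the day after seeding. Nuclei were stained and counted after 5 days. Relative viability is the nuclei count in treated wells over that in vehicle wells, taken as the median of duplicate plates.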

NCI-H2405 = tested on: NCI-H2405
How it was run: as §1

UMC-11 = tested on: UMC-11
How it was run: as §1

H3255 = tested on: H3255
How it was run: as §1

NCI-H596 = tested on: NCI-H596
How it was run: as §1

NCI-H1437 = tested on: NCI-H1437
How it was run: as §1

HCC-366 = tested on: HCC-366
How it was run: as §1

LXF-289 = tested on: LXF-289
How it was run: as §1

NCI-H3122 = tested on: NCI-H3122
How it was run: as §1

NCI-H1915 = tested on: NCI-H1915
How it was run: as §1

PC-14 = tested on: PC-14
How it was run: as §1

HCC-15 = tested on: HCC-15
How it was run: as §1

A-427 = tested on: A-427
How it was run: as §1

NCI-H460 = tested on: NCI-H460
How it was run: as §1

NCI-H2009 = tested on: NCI-H2009
How it was run: as §1

NCI-H1755 = tested on: NCI-H1755
How it was run: as §1

PC-3 [JPC-3] = tested on: PC-3 [JPC-3]
How it was run: as §1

NCI-H650 = tested on: NCI-H650
How it was run: as §1

SK-LU-1 = tested on: SK-LU-1
How it was run: as §1

NCI-H2023 = tested on: NCI-H2023
How it was run: as §1

NCI-H1975 = tested on: NCI-H1975
How it was run: as §1

HARA = tested on: HARA
How it was run: as §1

SMILES: O=C(O)CCCCC(CCSCc1ccccc1)SCc1ccccc1 (stereo not given) [CPI-613] + CC(C)C[C@H](NC(=O)[C@H](Cc1ccccc1)NC(=O)c1cnccn1)B(O)O [Bortezomib] (partner 0.002 µM)
- relative viability (NCI-H441; first compound 5 µM): 0.447
- relative viability (NCI-H441; first compound 15.81 µM): 0.44
- relative viability (NCI-H441; first compound 50 µM): 0.537
- relative viability (NCI-H441; first compound 158.11 µM): 0.129
- relative viability (NCI-H441; first compound 500 µM): 0.005
- relative viability (NCI-H2405; first compound 5 µM): 0.986
- relative viability (NCI-H2405; first compound 15.81 µM): 0.961
- relative viability (NCI-H2405; first compound 50 µM): 0.891
- relative viability (NCI-H2405; first compound 158.11 µM): 0.913
- relative viability (NCI-H2405; first compound 500 µM): 0.852
- relative viability (UMC-11; first compound 5 µM): 0.703
- relative viability (UMC-11; first compound 15.81 µM): 0.496
- relative viability (UMC-11; first compound 50 µM): 0.692
- relative viability (UMC-11; first compound 158.11 µM): 0.641
- relative viability (UMC-11; first compound 500 µM): 0.0673
- relative viability (H3255; first compound 5 µM): 0.815
- relative viability (H3255; first compound 15.81 µM): 0.719
- relative viability (H3255; first compound 50 µM): 0.781
- relative viability (H3255; first compound 158.11 µM): 0.734
- relative viability (H3255; first compound 500 µM): 0.736
- relative viability (NCI-H596; first compound 5 µM): 0.972
- relative viability (NCI-H596; first compound 15.81 µM): 0.934
- relative viability (NCI-H596; first compound 50 µM): 1
- relative viability (NCI-H596; first compound 158.11 µM): 0.779
- relative viability (NCI-H596; first compound 500 µM): 0.208
- relative viability (NCI-H1437; first compound 5 µM): 0.479
- relative viability (NCI-H1437; first compound 15.81 µM): 0.397
- relative viability (NCI-H1437; first compound 50 µM): 0.493
- relative viability (NCI-H1437; first compound 158.11 µM): 0.115
- relative viability (NCI-H1437; first compound 500 µM): 0.0227
- relative viability (HCC-366; first compound 5 µM): 1.01
- relative viability (HCC-366; first compound 15.81 µM): 0.957
- relative viability (HCC-366; first compound 50 µM): 1.06
- relative viability (HCC-366; first compound 158.11 µM): 0.391
- relative viability (HCC-366; first compound 500 µM): 0.0068
- relative viability (LXF-289; first compound 5 µM): 0.981
- relative viability (LXF-289; first compound 15.81 µM): 1.03
- relative viability (LXF-289; first compound 50 µM): 0.94
- relative viability (LXF-289; first compound 158.11 µM): 0.554
- relative viability (LXF-289; first compound 500 µM): 0.069
- relative viability (NCI-H3122; first compound 5 µM): 0.973
- relative viability (NCI-H3122; first compound 15.81 µM): 1.04
- relative viability (NCI-H3122; first compound 50 µM): 1.01
- relative viability (NCI-H3122; first compound 158.11 µM): 0.939
- relative viability (NCI-H3122; first compound 500 µM): 0.281
- relative viability (NCI-H1915; first compound 5 µM): 0.992
- relative viability (NCI-H1915; first compound 15.81 µM): 0.99
- relative viability (NCI-H1915; first compound 50 µM): 0.946
- relative viability (NCI-H1915; first compound 158.11 µM): 0.799
- relative viability (NCI-H1915; first compound 500 µM): 0.746
- relative viability (PC-14; first compound 5 µM): 0.989
- relative viability (PC-14; first compound 15.81 µM): 0.855
- relative viability (PC-14; first compound 50 µM): 0.839
- relative viability (PC-14; first compound 158.11 µM): 0.893
- relative viability (PC-14; first compound 500 µM): 0.339
- relative viability (HCC-15; first compound 5 µM): 0.938
- relative viability (HCC-15; first compound 15.81 µM): 0.932
- relative viability (HCC-15; first compound 50 µM): 0.905
- relative viability (HCC-15; first compound 158.11 µM): 0.757
- relative viability (HCC-15; first compound 500 µM): 0.394
- relative viability (A-427; first compound 5 µM): 0.939
- relative viability (A-427; first compound 15.81 µM): 0.901
- relative viability (A-427; first compound 50 µM): 0.96
- relative viability (A-427; first compound 158.11 µM): 0.761
- relative viability (A-427; first compound 500 µM): 0.253
- relative viability (NCI-H460; first compound 5 µM): 1.07
- relative viability (NCI-H460; first compound 15.81 µM): 1.12
- relative viability (NCI-H460; first compound 50 µM): 0.895
- relative viability (NCI-H460; first compound 158.11 µM): 0.445
- relative viability (NCI-H460; first compound 500 µM): 0.0063
- relative viability (NCI-H2009; first compound 5 µM): 1.07
- relative viability (NCI-H2009; first compound 15.81 µM): 0.942
- relative viability (NCI-H2009; first compound 50 µM): 0.884
- relative viability (NCI-H2009; first compound 158.11 µM): 0.0722
- relative viability (NCI-H2009; first compound 500 µM): 0.0082
- relative viability (NCI-H1755; first compound 5 µM): 0.959
- relative viability (NCI-H1755; first compound 15.81 µM): 0.945
- relative viability (NCI-H1755; first compound 50 µM): 0.875
- relative viability (NCI-H1755; first compound 158.11 µM): 0.707
- relative viability (NCI-H1755; first compound 500 µM): 0.114
- relative viability (PC-3 [JPC-3]; first compound 5 µM): 0.83
- relative viability (PC-3 [JPC-3]; first compound 15.81 µM): 0.695
- relative viability (PC-3 [JPC-3]; first compound 50 µM): 0.755
- relative viability (PC-3 [JPC-3]; first compound 158.11 µM): 0.451
- relative viability (PC-3 [JPC-3]; first compound 500 µM): 0.452
- relative viability (NCI-H650; first compound 5 µM): 0.828
- relative viability (NCI-H650; first compound 15.81 µM): 0.617
- relative viability (NCI-H650; first compound 50 µM): 0.92
- relative viability (NCI-H650; first compound 158.11 µM): 0.689
- relative viability (NCI-H650; first compound 500 µM): 0.452
- relative viability (SK-LU-1; first compound 5 µM): 1.31
- relative viability (SK-LU-1; first compound 15.81 µM): 0.781
- relative viability (SK-LU-1; first compound 50 µM): 1.32
- relative viability (SK-LU-1; first compound 158.11 µM): 1.02
- relative viability (SK-LU-1; first compound 500 µM): 0.935
- relative viability (NCI-H2023; first compound 5 µM): 0.932
- relative viability (NCI-H2023; first compound 15.81 µM): 0.947
- relative viability (NCI-H2023; first compound 50 µM): 0.961
- relative viability (NCI-H2023; first compound 158.11 µM): 0.042
- relative viability (NCI-H2023; first compound 500 µM): 0.0072
- relative viability (NCI-H1975; first compound 5 µM): 0.445
- relative viability (NCI-H1975; first compound 15.81 µM): 0.448
- relative viability (NCI-H1975; first compound 50 µM): 0.394
- relative viability (NCI-H1975; first compound 158.11 µM): 0.174
- relative viability (NCI-H1975; first compound 500 µM): 0.0487
- relative viability (HARA; first compound 5 µM): 1.02
- relative viability (HARA; first compound 15.81 µM): 1.09
- relative viability (HARA; first compound 50 µM): 1.19
- relative viability (HARA; first compound 158.11 µM): 0.716
- relative viability (HARA; first compound 500 µM): 0.114
